Columns and labels:
[1] = system: CD4+ cells of MG patients; assay: Response of CD4+ T cells of MG patients to synthetic human AChR peptides; format: cell-based; conditions: irrespective of HLA class II type
Source text: Several studies have identified sequences of the human AChR α subunit recognized by T cells in MG patients. To determine whether the CD4^+ cells recognizing those immunodominant and/or universal epitope sequences can drive the synthesis of pathogenic anti-AChR antibodies, and how the ability of the different sequence regions of the AChR to interact with different HLA DR molecules correlates with the presence of universal CD4^+ epitopes, synthetic peptides based on the amino acid sequence of the human α subunit of AChR (Noda et al., Nature, 305, 818 (1983); Schoepfer et al., FEBS Lett., 226, 235 (1981)) were prepared. The peptides were approximately 20 residues long, a length that compares with that of naturally processed class II-restricted epitopes, which are 9-14 residues. […] The peptides overlapped by 5-10 residues to reduce the risk of missing epitopes “broken” between peptides.
The response to individual overlapping synthetic AChR peptides spanning the sequence of each AChR subunit, of unselected blood […], and of CD4^+ T cell lines enriched with AChR-specific cells by culture in vitro with ACHR antigens, was tested. The use of those two cell populations has different advantages and limitations. AChR-specific CD4+ lines have strong, consistent responses to individual peptides that allow a clear-cut assessment of their epitope repertoire. However, they may have an epitope repertoire different from that of the original CD4^+ population due to biased clonal propagation in vitro. Also, denatured forms of the antigen such as synthetic and biosynthetic peptides, which are commonly used for propagation of CD4+ cells specific for rare antigens, may be processed into peptide epitopes different from those obtained from processing of the native antigen in vivo and may expand […] irrelevant for the immune process in vivo. […]

[2] = Distribution in the respiratory tract of solutions administered nasally; format: in vivo, mouse; conditions: 25 μl of 4% solution into nostrils, 10-15 minutes
Description: Distribution in the Respiratory Tract of Solutions Administered Nasally. To determine which parts of the mouse respiratory system came in contact with solutions given nasally, a solution of ethidium bromide was employed. Ethidium bromide is absorbed through the mucosal lining of the respiratory tract and fluoresces brightly under U.V. light. Two mice were anesthetized and 25 μl of a 4% ethidium bromide solution in PBS was instilled into the nostrils. Ten-fifteen minutes later the animals were sacrificed by cervical dislocation. Their nasal cavities, larynx, trachea, bronchi and lungs were dissected, washed in PBS and examined under U.V. light for ethidium bromide staining.

Molecule: α101-137: human AChR α subunit sequence region covered by peptides α101-120 and α118-137 (AIVKFTKVLLQYTGHITWTPPAIFKSYCEIIVTHFPF; UniProt P02708 121-157, looked up, fragment)
- recognition by CD4+ cells of MG patients [1]: recognized by the majority of the patients

Molecule: CC[n+]1c(-c2ccccc2)c2cc(N)ccc2c2ccc(N)cc21 [ethidium bromide]
- staining of bronchi [2]: increasingly weaker
- staining of lung parenchyma [2]: only weak focal signals
- staining of nostrils, larynx and trachea [2]: brightly stained

Molecule: α403-437: carboxyl-terminal human AChR α subunit sequence covered by peptides α403-421 and α419-437 (AMVMDHILLGVFMLVCIIGTLAVFAGRLIELNQQG; UniProt P02708 423-457, looked up, fragment)
- recognition by CD4+ cells of MG patients [1]: recognized by the majority of the patients

Molecule: peptide α304-322: synthetic sequence of the human AChR α subunit, universal epitope (STHVMPNWVRKVFIDTIPN; UniProt P02708 324-342, looked up, fragment)
- recognition by CD4+ cells of MG patients [1]: recognized by the majority of the patients

— patent publication US6759385B1, “Methods to treat undesirable immune responses” (Regents of the University of Minnesota, priority 1997, dated 2004)
